70 molecules from PubChem BioAssay AID179 (DTP/NCI, 2004) can be followed below.

The source made the active and inactive calls.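 The calls were made as follows: active = compounds giving half or more protection of infected cells from virus-caused growth loss, again on retest; inactive = the rest.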 Where only a bound is given, the exact number is not on record here.

The assay concerns CEM cells HIV-1 protection, formazan growth assay. Description: NCI AIDS Antiviral Assay. As to conditions: for IC50: measured here: growth of uninfected CEM cells. Summed up: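 Steps: treat uninfected and HIV-1-infected human CEM cells at five drug levels; quantify growth by soluble formazan; retest any compound reaching 50% protection; classify actives from the retest.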

For the molecule `O=C1OC(Cc2ccccc2)(N2CCCC2=O)C1c1ccccc1` (stereo not drawn), the EC50 is above 112 µM and the IC50 was above 112 µM.

On to `C=CCNC(=S)NNC(=O)c1c(C)nc2sccn12`, for which the EC50 is above 851 µM and the IC50 was determined as 813 µM.

Take `CN1Nc2ccccc2CC1=O`: the EC50 is above 1550 µM and the IC50 is 55 µM.

`CC(=O)OCc1ccc2c(c1)C(O)NC(=O)O2` (stereo not drawn): the EC50 was above 200 µM and the half-maximal inhibitory concentration (IC50) came out at 105 µM.

For `Nc1ncnc2c1ncn2C(CO)OC(CO)CCP(=O)(O)O` (stereo not drawn), the EC50 is above 100 µM and the IC50 was above 100 µM.

On to `[N-]=[N+]=NC1CC(n2cc(Cc3cccc(OCc4ccccc4)c3)c(=O)[nH]c2=O)OC1CO` (stereo not drawn), for which the result was inactive.

For `CCOc1nc(C(=O)O)cc2ccsc12`, the EC50 is above 589 µM and the IC50 was 501 µM.

Regarding `Cc1ccc(S[C@@H](C)[C@@](O)(C(N)=O)c2ccccc2)cc1`, the EC50 is above 200 µM and the IC50 worked out at 30.2 µM.

For `CCSC(=O)OCn1ncc2cc([N+](=O)[O-])ccc21`, the EC50 is above 200 µM and the IC50 stood at 95.5 µM.

For the molecule `COc1ccc(OC)c(C(O)C(C)NC(C)(C)C)c1` (stereo not drawn), the EC50 was above 200 µM and the IC50 is above 200 µM.

As for `NNC(=O)c1nnc(NN)[nH]c1=O`, the EC50 was above 200 µM and the IC50 is above 200 µM.

With `COC(=O)C1CC(Sc2ccccc2)C(=O)C(C(=O)OC)C1` (stereo not drawn), the EC50 is above 112 µM and the IC50 was found to be 77.6 µM.

For `CN(/N=C/c1ccccn1)C1=NCCCN1`, the EC50 was above 200 µM and the IC50 is above 200 µM.

Turning to `CC(C)(C)c1ccc(Oc2ccc3c(c2)-c2nc-3nc3[nH]c(nc4nc(nc5[nH]c(n2)c2ccc(Oc6ccc(C(C)(C)C)cc6C(C)(C)C)cc52)-c2cc(Oc5ccc(C(C)(C)C)cc5C(C)(C)C)ccc2-4)c2ccc(Oc4ccc(C(C)(C)C)cc4C(C)(C)C)cc32)c(C(C)(C)C)c1`, the EC50 was above 9.77 µM and the half-maximal inhibitory concentration (IC50) is above 9.77 µM.

Turning to `N=C(N)SCCCON`, the EC50 was above 200 µM and the IC50 is above 200 µM.

For `COC1Nc2nc3ccccc3nc2NC1OC` (stereo not drawn), the EC50 is above 363 µM and the IC50 amounted to 66.1 µM.

Consider `CN(C)c1ccc(/C=C2\C=Cc3ccccc32)cc1F`, for which the EC50 was above 200 µM and the IC50 is 120 µM.

Consider `CCOC(=O)C1Cc2cc(C)c(C)cc2N(C)C1=O` (stereo not drawn), for which the EC50 is above 200 µM and the 50% inhibitory concentration (IC50) is above 200 µM.

For `OCC(O)C(O)C(O)c1nn(-c2ccc(F)cc2)c2nc3cc(Cl)c(Cl)cc3nc12` (stereo not drawn), the result was inactive.

Regarding `CCOC(=O)CCC(NC(=O)c1ccc(Oc2nc3ccc(C(F)(F)F)cc3nc2-c2ccccc2)cc1)C(=O)OCC` (stereo not drawn), the EC50 was above 200 µM and the IC50 turned out to be 195 µM.

As for `c1ccc2c(NCCCCCCCCNc3c4ccccc4nc4ccccc34)c3ccccc3nc2c1`, the result was inactive.

Take `C1CN2CN1CN1CCN(C1)C2`: the EC50 is above 200 µM and the IC50 is 22.9 µM.

Consider `C[C@H](COCP(=O)(O)O)n1cnc2c(N)ncnc21`, for which the EC50 was above 200 µM and the IC50 is above 200 µM.

Take `COc1ccc2c(c1)c1c(n2CCN(C)C)-c2ccccc2CC1`: the EC50 was above 200 µM and the IC50 came out at 14.8 µM.

Turning to `c1cnc2c(c1)Nc1cnncc1S2`, the EC50 was above 200 µM and the IC50 was above 200 µM.

Regarding `O=C(O)c1c2c(cc3c(=O)c4ccccc4[nH]c13)CCCC2`, the EC50 is above 617 µM and the IC50 was found to be 85.1 µM.

For `Clc1cccc(Cl)c1Nc1ccccc1Cc1nc2ccccc2[nH]1`, the EC50 is above 200 µM and the IC50 amounted to 75.9 µM.

As for `Nn1c(CCCCCCCCc2nnc(COc3c(O)ccc4ccccc34)n2N)nnc1COc1c(O)ccc2ccccc12`, the EC50 was above 200 µM and the IC50 came to 170 µM.

For `CC(C)CCCCCCCCCCCCC(=O)NCC(=O)NC1C(C)OC(Nc2ncnc3c2ncn3C)C(O)C1O` (stereo not drawn), the outcome was inactive.

As for `O=C(CC1(O)C(=O)N(CN2CCCCC2)c2ccccc21)c1ccccc1` (stereo not drawn), the EC50 was above 200 µM and the IC50 came to 97.7 µM.

For `[B]C(=O)NC(CC(C)C)C(=O)NC1c2ccsc2C(=O)C1O` (stereo not drawn) (tested in a mixture with another compound), the EC50 was above 200 µM and the half-maximal inhibitory concentration (IC50) was above 200 µM.

As for `Clc1ccc(-c2c3nc(c(-c4ccc(Cl)cc4)c4ccc([nH]4)c(-c4ccc(Cl)cc4)c4nc(c(-c5ccc(Cl)cc5)c5ccc2[nH]5)C=C4)C=C3)cc1`, the EC50 was above 200 µM and the IC50 was above 200 µM.

For the molecule `CC(C)N(Cc1ccccc1)S(=O)(=O)c1n[nH]c(C(C)(C)C)n1`, the EC50 was above 200 µM and the IC50 is above 200 µM.

As for `COc1c(OC)c(C2(O)C(=O)N(C)c3ccccc32)c(OC)c(OC)c1C1(O)C(=O)N(C)c2ccccc21` (stereo not drawn), the EC50 was above 200 µM and the IC50 was above 200 µM.

With `CCOC(=O)OC1C(Br)C2CCC1(C)C2(C)C` (stereo not drawn), the EC50 is above 200 µM and the IC50 was above 200 µM.

`O/N=c1/sc2ccccc2nc1-c1ccccc1`: the EC50 was above 200 µM and the IC50 was above 200 µM.

In the case of `CC(C)CN(C[C@@H](O)[C@H](Cc1ccccc1)NC(=O)[C@H](CC(N)=O)NC(=O)c1ccc2ccccc2n1)C(=O)NC(C)(C)C`, the result was active and the IC50 was determined as 93.3 µM.

As for `O=C(Nc1cc(Cl)c(Cl)cc1NC(=O)C(Cl)(Cl)Cl)C(Cl)(Cl)Cl`, the EC50 was above 200 µM and the IC50 is 0.417 µM.

Regarding `[N-]=[N+]=Nc1nnc(CCCCc2nnc(N=[N+]=[N-])o2)o1`, the EC50 is above 468 µM and the IC50 came to 138 µM.

For `COc1ccc(/C=C/C(=O)c2sc(NC(=S)NC(=O)c3ccc(Cl)cc3)nc2C)cc1OC`, the EC50 is above 37.2 µM and the IC50 is above 37.2 µM.

As to `O=C1c2cccc3cc([N+](=O)[O-])cc(c23)C(=O)N1CCCN1CCN(CCCNc2ccc3ncn4c5ccccc5c(=O)c2c34)CC1`, the EC50 is above 0.00501 µM and the half-maximal inhibitory concentration (IC50) is 0.0049 µM.

Regarding `O=C(Nc1ccc(/C=C/c2ccc(NC(=O)c3cc(S(=O)(=O)O)c4cccnc4c3O)cc2S(=O)(=O)O)c(S(=O)(=O)O)c1)Nc1ccc(/C=C/c2ccc(NC(=O)c3cc(S(=O)(=O)O)c4cccnc4c3O)cc2S(=O)(=O)O)c(S(=O)(=O)O)c1`, the concentration for a half-maximal effect (EC50) was 5.5 µM and the IC50 stood at 50.1 µM.

With `COC(=O)C1(c2ccc(N(C)C)cc2OC)CCCN(C(=O)Oc2ccccc2[N+](=O)[O-])CCc2c1[nH]c1ccccc21` (stereo not drawn), the EC50 was above 200 µM and the IC50 is above 200 µM.

For the molecule `C#CCN1CCCC(O)C1` (stereo not drawn), the result was inactive.

As to `Cc1c2ccccc2nc(CCl)[n+]1[O-]`, the EC50 was above 200 µM and the half-inhibitory concentration (IC50) stood at 3.24 µM.

For `Cc1ccc(C2=C(c3ccccc3)C(O)(c3ccc(C)cc3)C(c3ccccc3)=C2c2ccc(C)cc2)cc1`, the EC50 was above 5.13 µM and the concentration for half-maximal inhibition (IC50) was above 5.13 µM.

For `O=C1OCc2c1[nH]c(=O)[nH]c2=O`, the EC50 was above 200 µM and the IC50 was above 200 µM.

For the molecule `COC(=O)CN=C1NC(=S)N(Cc2ccc(OC)cc2)C12CCCC2`, the EC50 was above 200 µM and the IC50 is above 200 µM.

For `CCCCCCCC/C=C\CCCCCCCCOP(=O)(O)OCCC=C(c1cc(Cl)c(O)c(C(=O)O)c1)c1cc(Cl)c(O)c(C(=O)O)c1`, the EC50 was above 77.6 µM and the half-inhibitory concentration (IC50) was 69.2 µM.

Regarding `Cc1cc(C)nc(NS(=O)(=O)c2ccc(Nc3c4ccccc4nc4ncccc34)cc2)n1`, the outcome was inactive.

As to `O=c1/c(=C/c2ccccn2)sc2nc3cc4c(cc3n12)OCCO4`, the EC50 was above 200 µM and the IC50 is above 200 µM.

For `O=C(O)CN1CCSc2ccccc2CN(CC(=O)O)CCSc2ccccc2C1`, the EC50 is above 562 µM and the IC50 is above 562 µM.

Take `Cc1ccnc(NS(=O)(=O)c2ccc(NC3=CC(=O)C(=O)c4ccccc43)cc2)n1`: the result was inactive.

As to `COC(=O)C1C=CCON2CCc3c(n(S(=O)(=O)c4ccccc4)c4ccccc34)C12` (stereo not drawn), the EC50 was above 22.9 µM and the IC50 was above 22.9 µM.

`CCOC(=O)c1cc(/C=C/C(C)=C/C(=O)OC)oc1-c1ccccc1`: the outcome was inactive.

Take `O=S1(c2ccccc2)=NC(=S)Nc2ccccc21` (stereo not drawn): the EC50 is 17.4 µM and the IC50 is above 200 µM.

For the molecule `C=C1C(=O)OC2C1CC1OC2C(C)CCC/C(C)=C\CCC1(C)O` (stereo not drawn), the EC50 was above 525 µM and the concentration for half-maximal inhibition (IC50) was determined as 17 µM.

For the molecule `C[Si]12OCCCN(CCO1)CCO2`, the outcome was inactive.

Consider `COC12C=CC(CC1)C(C)(C)C2OS(C)(=O)=O` (stereo not drawn), for which the outcome was inactive.

For `O=C1OC(=O)C2C1C1C(c3ccccc3)=C(c3ccccc3)C2(O)C2C(=O)OC(=O)C12` (stereo not drawn), the EC50 is above 17.4 µM and the half-maximal inhibitory concentration (IC50) was determined as 10.2 µM.

For the molecule `COC(=O)c1ccc(CSc2ccc(OC)cc2)cc1`, the outcome was inactive.

In the case of `O=C(Nc1nccs1)c1cc(C2=CC=CC([N+](=O)[O-])C=C2)nc(=S)[nH]1` (stereo not drawn), the EC50 was above 95.5 µM and the IC50 is above 95.5 µM.

Turning to `COc1cc(C2SC(N)=Nc3c2c(C)nn3C(=O)c2ccccc2O)cc(OC)c1OC` (stereo not drawn), the EC50 was above 20 µM and the IC50 was 0.457 µM.

Turning to `CNC(=O)Nc1cc2c3c(c1)CCCN3CCC2`, the EC50 was 135 µM and the IC50 amounted to 178 µM.

Regarding `Cc1cccc(C)c1NC(=O)CN(CC(C)C)CC(O)COc1ccccc1` (stereo not drawn), the EC50 was above 200 µM and the IC50 turned out to be 27.5 µM.

With `CN1c2ccccc2C(=O)NC12CCN(CC1COc3ccccc3O1)CC2` (stereo not drawn), the EC50 is above 200 µM and the half-inhibitory concentration (IC50) was 89.1 µM.

For the molecule `Cc1sc(C)c2c1C(=O)CC2N` (stereo not drawn), the EC50 was above 200 µM and the 50% inhibitory concentration (IC50) stood at 9.77 µM.

Regarding `COc1ccc(N=C2C(=Nc3ccc(OC)cc3)N(S(=O)(=O)c3ccccc3)C(=S)N2c2ccccc2)cc1`, the EC50 was above 200 µM and the IC50 is above 200 µM.

Regarding `CCCCNc1nc(C(F)(F)F)nc2nc[nH]c12`, the EC50 was above 200 µM and the IC50 was above 200 µM.

For `COc1c(OC(C)C)cc2cc(O)c(C(=O)NC3Cc4ccc(c(Cl)n4)O[C@@H]4C=C5C#C/C(=C\C#CC6OC56C4OC4CC(C)(O)C(O)C(C)O4)C(OC4CC(O)C(N(C)C)C(C)O4)COC3=O)cc2c1OC` (stereo partly drawn), the result was inactive.

Broadly, the EC50 is the midpoint of the concentration-response curve. In general, IC50 refers to the concentration at which inhibition is half-maximal.
